The assay concerns the target GLP1R receptor (Homo sapiens, UniProt P43220). Kind of assay: cAMP assay: intracellular cAMP detected by TR-FRET. The note with it: cells incubated with compound at 37° C. for 30 min, maximum concentration 12 μM. Format: cell-based. As for the experimental part: Intracellular cAMP concentration was detected by TR-FRET method to evaluate the activity of drug-induced GLP1R receptor. The cells were prepared in an experimental buffer solution (HBSS, 20 mM HEPES (pH 7.5), 0.1% BSA, 500 μM IBMX) and inoculated into 384 cell culture plates with a inoculated density of 2000 cells and a inoculated volume of 15 μL per well. The compound was diluted by 3 times gradient with DMSO, 10 concentration gradients, and the 10 concentration gradients were diluted by 100 times in Buffer. The maximum concentration point of compound to be tested was 12 μM. The inoculated 384 cell plates were added with 5 μL prepared working solution and incubated at 37° C. for 30 min. Eu-cAMP tracer was diluted 50 times and Ulight-anti-cAMP 150 times by detection buffer (cAMP Kit, Perkin Elmer, cat #TRF0263). At first, 10 μL Eu-cAMP tracer was added to each experimental well, and then 10 μL Uligh-anti-cAMP was added to each experimental well. Centrifuged the assay plate at 200 g, RT, for 30 s, incubated it at 25° C. for 1 h. Collected the data by Envision 2105 microplate reader with a HTRF module. Excitation: 340 nm; emission: 665 nm and 615 nm.
The activation rate of each concentration of the tested compound to the positive drug was calculated by the formula % Activity=100 (SignalcmpdSignalAve_PC)/(SignalAve_VCSignalAve_PC)×100, EC50 values and nonlinear regression curve fits were obtained using GraphPad Prism software.
On the technique in general: Cyclic AMP is a second messenger, typically raised through Gs and lowered through Gi signalling.

A word on the EC50: it is the concentration giving half of the maximal effect.

Structures are written as SMILES.

Chain of GLP1R receptor (P43220 24-463): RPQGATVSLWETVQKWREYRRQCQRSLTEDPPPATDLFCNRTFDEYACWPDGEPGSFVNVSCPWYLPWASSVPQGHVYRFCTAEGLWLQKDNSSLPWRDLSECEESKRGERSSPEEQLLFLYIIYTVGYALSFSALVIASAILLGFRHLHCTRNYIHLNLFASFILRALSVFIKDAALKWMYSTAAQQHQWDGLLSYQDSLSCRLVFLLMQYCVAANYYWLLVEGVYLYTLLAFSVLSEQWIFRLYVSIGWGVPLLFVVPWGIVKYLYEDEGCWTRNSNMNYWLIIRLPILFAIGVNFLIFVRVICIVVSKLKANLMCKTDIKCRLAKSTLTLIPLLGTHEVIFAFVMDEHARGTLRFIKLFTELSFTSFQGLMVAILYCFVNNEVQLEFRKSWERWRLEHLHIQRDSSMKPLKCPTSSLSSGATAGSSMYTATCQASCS

For the compound `Cc1cc(-n2nc3c(c2-n2ccn(-c4ccc5c(cnn5C)c4F)c2=O)[C@H](C)N(C(=O)c2oc4cc(C5CCOC(C)(C)C5)ncc4c2C2(c4noc(=O)[nH]4)C[C@@H]2C)CC3)cc(C)c1F` (stereo partly drawn) [Example 31, 3-((2S)-1-(6-(2,2-dimethyl-tetrahydro-2H-pyran-4-yl)-2-((S)-3-(3-(4-fluoro-1-methyl-1H-indazol-5-yl)-2-oxo-2,3-dihydro-1H-imidazol-1-yl)-2-(4-fluoro-3,5-dimethylphenyl)-4-methyl-4,5,6,7-tetrahydro-2H-pyrazolo[4,3-c]pyridine-5-carbonyl)furo[3,2-c]pyridin-3-yl)-2-methyl-cyclopropyl)-1,2,4-oxadiazol-5(4H)-one], the EC50 amounted to 182 pM.
As to `Cc1cc(-n2nc3c(c2-n2ccn(-c4ccc5c(cnn5C)c4F)c2=O)[C@H](C)N(C(=O)c2sc4cc(C5CCOC(C)(C)C5)ccc4c2C2(c4noc(=O)[nH]4)C[C@@H]2C)CC3)cc(C)c1F` (some centres unmarked) [Example 3], the EC50 was 406 pM.
As for `Cc1cc(-n2nc3c(c2-n2ccn(-c4ccc5c(cnn5C)c4F)c2=O)[C@H](C)N(C(=O)c2sc4cc(C5CCOC(C)(C)C5)cnc4c2C2(c4noc(=O)[nH]4)C[C@@H]2C)CC3)cc(C)c1F` (stereo partly drawn) [Example 30, 3-((2S)-1-(6-(2,2-dimethyl-tetrahydro-2H-pyran-4-yl)-2-((S)-3-(3-(4-fluoro-1-methyl-1H-indazol-5-yl)-2-oxo-2,3-dihydro-1H-imidazol-1-yl)-2-(4-fluoro-3,5-dimethylphenyl)-4-methyl-4,5,6,7-tetrahydro-2H-pyrazolo[4,3-c]pyridine-5-carbonyl)thieno[3,2-b]pyridin-3-yl)-2-methyl-cyclopropyl)-1,2,4-oxadiazol-5(4H)-one], the half-maximal effective concentration (EC50) came to 44 pM.
Regarding `Cc1cc(-n2nc3c(c2N2C(=O)N(c4ccc5c(cnn5C)c4F)C4CC42)[C@H](C)N(C(=O)c2cc4cc([C@H]5CCOC(C)(C)C5)ccc4n2[C@@]2(c4noc(=O)[nH]4)C[C@@H]2C)CC3)cc(C)c1F` (stereo partly drawn) [Example 6, 3-((1S,2S)-1-(5-((S)-2,2-dimethyltetrahydro-2H-pyran-4-yl)-2-((4S)-3-(4-(4-fluoro-1-methyl-1H-indazol-5-yl)-3-oxo-2,4-diazabicyclo[3.1.0]hexan-2-yl)-2-(4-fluoro-3,5-dimethylphenyl)-4-methyl-4,5,6,7-tetrahydro-2H-pyrazolo[4,3-c]pyridine-5-carbonyl)-1H-indol-1-yl)-2-methylcyclopropyl)-1,2,4-oxadiazol-5(4H)-one], the EC50 came out at 87 pM.
On to `Cc1cc(-n2nc3c(c2-n2ccn(-c4ccc5c(cnn5C)c4F)c2=O)[C@H](C)N(C(=O)c2sc4nc(C5CCOC(C)(C)C5)ccc4c2C2(c4noc(=O)[nH]4)C[C@@H]2C)CC3)cc(C)c1F` (stereo partly drawn) [Example 29, 3-((2S)-1-(6-(2,2-dimethyl-tetrahydro-2H-pyran-4-yl)-2-((S)-3-(3-(4-fluoro-1-methyl-1H-indazol-5-yl)-2-oxo-2,3-dihydro-1H-imidazol-1-yl)-2-(4-fluoro-3,5-dimethyl-phenyl)-4-methyl-4,5,6,7-tetrahydro-2H-pyrazolo[4,3-c]pyridine-5-carbonyl)thieno [2,3-b]pyridin-3-yl)-2-methylcyclopropyl)-1,2,4-oxadiazol-5(4H)-one], for which the concentration giving a half-maximal response (EC50) turned out to be 93 pM.
